# Measurements reported in patent publication US20250213533A1 (GH RESEARCH IRELAND LIMITED, priority 2022, published 2025).
# Tested on: patients with postpartum depression (PPD)
# Experiment: Clinical trial of inhaled 5-MeO-DMT (IDR) in postpartum depression; one patient so far, 6 mg then 12 mg
# Details: 1 patient
# Procedure: The single-arm, open-label clinical trial will involve 15 adult female patients with clinically diagnosed postpartum depression (PPD).
# The second dose (12 mg) will only be administered if: • a. […] The 6 mg dose was safe and well-tolerated according to the investigator, • c. Any psychoactive effects (PsE) of the prior dose have subsided, and • d. Pre-dose vital parameters and forced expiratory volume in one second (FEV1) are in normal range, or if outside of the normal range, are not clinically significant according to the investigator. • 3. Similarly, a third dose (18 mg) will only be administered if: • a. […] The 12 mg dose was safe and well-tolerated according to the investigator, and • c. Any PsE of the prior dose have subsided, and • d. Pre-dose vital parameters and forced expiratory volume in one second (FEV1) are in normal range, or if outside of the normal range, are not clinically significant according to the investigator.
# The patients will be assessed for a peak psychedelic experience (based on a patient-scored visual analogue scale, the PE scale), sedation, and other endpoints after dosing. Follow-up visits are planned for Day 1, and Day 7 after the dosing day.
# The following criteria must be met by all patients considered for clinical trial participation: • 1. Is female and in the age range between 18 and 45 years (inclusive) at screening. • 2. Has a body mass index (BMI) in the range of 18.5 and 35 kg/m^2 (inclusive) at screening. • 3. Meets the trial criteria for PPD as assessed by a trial psychiatrist or registered psychologist: • a. Diagnosis of Major Depressive Disorder without psychotic features, confirmed by the Mini-International Neuropsychiatric Interview (MINI), with peri-partum onset that began no earlier than gestation and no later than the first 4 weeks postpartum. • b. Has a Montgomery-Åsberg Depression Rating Scale (MADRS) total score of equal to or greater than 28 at screening and pre-dose on Day 0. • 6. […] Patients must have a negative pregnancy test at screening and on the pre-test day (Day −1). • 5. Is willing to delay start of other antidepressant or anxiety medication until after the end of the trial at Day 7 and agrees to keep any psychotherapy unchanged during the trial.
# A potential patient who meets any of the following key exclusion criteria will be excluded from participation in this trial: • 1. Has, based on history, psychiatric assessment, and evaluation of the MINI, a current or prior diagnosis of bipolar disorder, a manic or hypomanic episode, a psychotic disorder, Major Depressive Disorder (MDD) or other mood disorder with psychotic features, obsessive compulsive disorder, post-traumatic stress disorder (PTSD), autism spectrum disorder, borderline personality disorder, schizophrenia, delusional disorder, paranoid personality disorder, schizoaffective disorder, clinically significant intellectual disability, or any other psychiatric comorbidity that renders the patient unsuitable for the trial according to the investigator's judgment. • 2. Has one or more first or second degree relatives with a current or previously diagnosed bipolar disorder, psychotic disorder or other mood disorder (including MDD) with psychotic features. • 3. Is in the judgement of a trial psychiatrist or registered psychologist, at significant risk for suicide based on history, psychiatric assessment, and evaluation of suicidal ideation and suicidal behaviour based on the Columbia-Suicide Severity Rating Scale (C-SSRS). • 4. Has taken anti-depressive medication within 14 days or 5 half-lives (whichever is longer) prior to dosing (exception: within the last 5 weeks in the case of fluoxetine). • 5.
structure (smiles),measurement,setting,value
COc1ccc2[nH]cc(CCN(C)C)c2c1 [5-MeO-DMT],"ECG (3 hours), safety laboratory analyses (7 days), CADSS (3 hours, 1 day, 7 days)",,unremarkable
same,standard criteria for MADRS remission (total score equal or less than 10),,fulfilled
same,standard criteria for MADRS response (at least 50% improvement from baseline),,fulfilled
same,time to clinical response after administration,,≤ 2 h
same,tolerability of the inhalation procedure,,well tolerated with no inhalation-related adverse events
same,MADRS Apparent sadness improvement,2hr,5
same,MADRS Apparent sadness score,2hr,0
same,MADRS Concentration Difficulties improvement,2hr,0
same,MADRS Concentration Difficulties score,2hr,0
same,MADRS Inability to Feel improvement,2hr,3
same,MADRS Inability to Feel score,2hr,0
same,MADRS Inner Tension improvement,2hr,5
same,MADRS Inner Tension score,2hr,0
same,MADRS Lassitude improvement,2hr,3
same,MADRS Lassitude score,2hr,0
same,MADRS Pessimistic Thoughts improvement,2hr,4
same,MADRS Pessimistic Thoughts score,2hr,0
same,MADRS Reduced Sleep improvement,2hr,0
same,MADRS Reduced Sleep score,2hr,5
same,MADRS Reduced appetite improvement,2hr,0
same,MADRS Reduced appetite score,2hr,0
same,MADRS Reported sadness improvement,2hr,4
same,MADRS Reported sadness score,2hr,0
same,MADRS Suicidal Thoughts improvement,2hr,0
same,MADRS Suicidal Thoughts score,2hr,0
same,BIMF TOTAL score,Day 0,92
same,BIMF item 1 (I am a good mother) score,Day 0,6
same,BIMF item 2 (I feel rested) score,Day 0,0
same,BIMF item 3 (comfortable with the way I've chosen to feed my baby) score,Day 0,6
same,BIMF item 4 (My baby and I understand each other) score,Day 0,5
same,BIMF item 5 (able to relax and enjoy time with my baby) score,Day 0,5
same,BIMF item 6 (people I can trust to care for my baby when I need a break) score,Day 0,6
same,BIMF item 8 (getting enough adult interaction) score,Day 0,6
same,BIMF item 9 (getting enough encouragement from other people) score,Day 0,5
same,BIMF item 10 (trust my own feelings (instincts) in taking care of my baby) score,Day 0,5
same,BIMF item 11 (take a little time each week to do something for myself) score,Day 0,5
same,BIMF item 12 (taking good care of my baby's physical needs) score,Day 0,6
same,BIMF item 13 (taking good care of my physical needs) score,Day 0,4
same,BIMF item 14 (good decisions about my baby's health and well being) score,Day 0,6
same,BIMF item 15 (My baby and I are getting into a routine) score,Day 0,5
same,BIMF item 16 (I worry about how other people judge me (as a mother)) score,Day 0,3
same,BIMF item 17 (able to take care of my baby and my other responsibilities) score,Day 0,5
same,BIMF item 18 (Anxiety or worry often interferes with my mothering ability) score,Day 0,2
same,BIMF item 19 (getting better at taking care of my baby) score,Day 0,0
same,BIMF item 20 (satisfied with the job I am doing as a new mother) score,Day 0,6
same,"adverse events (cramping left abdominal pain, headache)",Day 0,"mild, short-lasting and resolved spontaneously"
same,BIMF functional domain Adjustment score,"Day 0, maximum possible 12",5
same,BIMF functional domain Infant Care score,"Day 0, maximum possible 12",12
same,BIMF functional domain Mother-Child Interaction score,"Day 0, maximum possible 18",15
same,BIMF functional domain Self Care score,"Day 0, maximum possible 18",9
same,BIMF functional domain Social Support score,"Day 0, maximum possible 18",17
same,BIMF functional domain Management score,"Day 0, maximum possible 36",28
same,BIMF functional domain Psychological Well-being score,"Day 0, maximum possible 60",44
same,BPRS Anxiety improvement,Day 1,6
same,BPRS Anxiety score,Day 1,1
same,BPRS Blunted affect improvement,Day 1,0
same,BPRS Blunted affect score,Day 1,1
same,BPRS Conceptual disorganization improvement,Day 1,0
same,BPRS Conceptual disorganization score,Day 1,1
same,BPRS Depressive Mood improvement,Day 1,5
same,BPRS Depressive Mood score,Day 1,1
same,BPRS Disorientation improvement,Day 1,0
same,BPRS Disorientation score,Day 1,1
same,BPRS Emotional withdrawal improvement,Day 1,4
same,BPRS Emotional withdrawal score,Day 1,1
same,BPRS Excitement improvement,Day 1,1
same,BPRS Excitement score,Day 1,1
same,BPRS Grandiosity improvement,Day 1,0
same,BPRS Grandiosity score,Day 1,1
same,BPRS Guilt feelings improvement,Day 1,5
same,BPRS Guilt feelings score,Day 1,1
same,BPRS Hallucinatory behaviour improvement,Day 1,0
same,BPRS Hallucinatory behaviour score,Day 1,1
same,BPRS Hostility improvement,Day 1,0
same,BPRS Hostility score,Day 1,1
same,BPRS Mannerisms and Posturing improvement,Day 1,0
same,BPRS Mannerisms and Posturing score,Day 1,1
same,BPRS Motor retardation improvement,Day 1,0
same,BPRS Motor retardation score,Day 1,1
same,BPRS Somatic Concern improvement,Day 1,5
same,BPRS Somatic Concern score,Day 1,1
same,BPRS Suspiciousness improvement,Day 1,0
same,BPRS Suspiciousness score,Day 1,1
same,BPRS Tension score,Day 1,1
same,BPRS Uncooperativeness improvement,Day 1,0
same,BPRS Uncooperativeness score,Day 1,1
same,BPRS Unusual Thought Content improvement,Day 1,0
same,BPRS Unusual Thought Content score,Day 1,1
same,MADRS Apparent sadness improvement,Day 1,5
same,MADRS Apparent sadness score,Day 1,0
same,MADRS Concentration Difficulties improvement,Day 1,0
same,MADRS Concentration Difficulties score,Day 1,0
same,MADRS Inability to Feel improvement,Day 1,3
same,MADRS Inability to Feel score,Day 1,0
same,MADRS Inner Tension improvement,Day 1,5
same,MADRS Inner Tension score,Day 1,0
same,MADRS Lassitude improvement,Day 1,3
same,MADRS Lassitude score,Day 1,0
same,MADRS Pessimistic Thoughts improvement,Day 1,4
same,MADRS Pessimistic Thoughts score,Day 1,0
same,MADRS Reduced Sleep improvement,Day 1,5
same,MADRS Reduced Sleep score,Day 1,0
same,MADRS Reduced appetite improvement,Day 1,0
same,MADRS Reduced appetite score,Day 1,0
same,MADRS Reported sadness improvement,Day 1,4
same,MADRS Reported sadness score,Day 1,0
same,MADRS Suicidal Thoughts improvement,Day 1,0
same,MADRS Suicidal Thoughts score,Day 1,0
same,BIMF item 1 (I am a good mother) score,Day 7,6
same,BIMF item 2 (I feel rested) score,Day 7,2
same,BIMF item 3 (comfortable with the way I've chosen to feed my baby) score,Day 7,6
same,BIMF item 4 (My baby and I understand each other) score,Day 7,5
same,BIMF item 5 (able to relax and enjoy time with my baby) score,Day 7,6
same,BIMF item 6 (people I can trust to care for my baby when I need a break) score,Day 7,6
same,BIMF item 8 (getting enough adult interaction) score,Day 7,6
same,BIMF item 9 (getting enough encouragement from other people) score,Day 7,6
same,BIMF item 10 (trust my own feelings (instincts) in taking care of my baby) score,Day 7,6
